For orientation: inhibition means the relative decrease from the control value, in per cent. For orientation: IC50 means the midpoint of a concentration-inhibition curve.

T1 sequence (P01116 with tags, fused parts or gaps isoform P01116-2 G12C/C51S/C80L/C118S): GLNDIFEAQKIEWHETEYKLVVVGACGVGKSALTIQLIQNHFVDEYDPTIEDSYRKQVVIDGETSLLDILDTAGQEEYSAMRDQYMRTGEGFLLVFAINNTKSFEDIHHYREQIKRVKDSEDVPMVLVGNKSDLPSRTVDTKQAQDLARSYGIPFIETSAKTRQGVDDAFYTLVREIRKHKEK

One assay addresses T1, Biotinylated KRAS G12C protein (Homo sapiens, UniProt P01116, C118S/C51S/C80L/G12C).
T1 construct: 183 amino acids; biotin on K10
The assay is described as follows: SOS-catalyzed nucleotide exchange assay. The assay is classed as biochemical. The note with it: 10,000 nM; 60 minutes of preincubation prior to addition of SOS. The method, then:
Compounds are added to this complex, and then after 60 minute incubation time the mixture is treated with recombinant SOS protein and unlabeled GTP. Small molecule inhibitors stabilize the Bodipy-GDP complex whereas the untreated protein rapidly exchanges Bodipy-GDP for unlabeled GTP resulting in reduced TR-FRET signal. […] This mixture is then further diluted to 90 nM in an assay buffer (20 mM HEPES, 150 mM sodium chloride, 10 mM magnesium chloride, and 0.005% Tween) containing 15 nM of Terbium-Streptavidin (Invitrogen, catalog #PV3577) and 900 nM of Bodipy-GDP and incubated at room temperature for six hours. […] Each test compound (10 mM stock in DMSO) is diluted in DMSO to make a 10-point, 3-fold dilution series in a 384-well low dead volume microplate (Labcyte, catalog #LP-0200). Once titrations are made, 10 nL of the diluted compounds is acoustically dispensed into a 384-well assay plate (Corning, catalog #3820) using an Echo 550 (Labcyte). […] Each well then receives 3 μL of 240 nM recombinant human SOS protein and 9 mM GTP (Sigma, G8877) in assay buffer and is incubated at room temperature for 60 minutes. The time-resolved fluorescence resonance energy transfer signal for the assay plate is measured on an Envision (PerkinElmer) plate reader: Excitation filter=340 nm; emission1=495 nm; emission2=520 nm; dichroic mirror=D400/D505; delay time=100 μs. The signal of each well is determined as the ratio of the emission at 520 nm to that at 495 nm. […] The apparent effect as a function of compound concentration is fit to a four parameter logistic equation.
`C=CC(=O)N1C[C@H](C)N(c2cc(C(=O)NCCN(C)C)nc3c2CCN(c2cccc4cccc(C)c24)C3)C[C@H]1C` [Compound 59, 4-((2S,5R)-4-acryloyl-2,5-dimethylpiperazin-1-yl)-N-(2-(dimethylamino)ethyl)-7-(8-methylnaphthalen-1-yl)-5,6,7,8-tetrahydro-1,7-naphthyridine-2-carboxamide] yielded an inhibition at 10 µM of 38%.
Consider `C=CC(=O)N1CCN(c2cc(C(=O)N(C)CCN(C)C)nc3c2CCN(c2cccc4cccc(C)c24)C3)CC1` [Compound 15, 4-(4-acryloylpiperazin-1-yl)-N-(2-(dimethylamino)ethyl)-N-methyl-7-(8-methylnaphthalen-1-yl)-5,6,7,8-tetrahydro-1,7-naphthyridine-2-carboxamide], for which at 10 µM the inhibition was 33%.
In the case of `C=CC(=O)N1CCN(c2cc(C(=O)NCCN3CCOCC3)nc3c2CCN(c2cccc4ccccc24)C3)CC1` [Compound 9, 4-(4-acryloylpiperazin-1-yl)-N-(2-morpholinoethyl)-7-(naphthalen-1-yl)-5,6,7,8-tetrahydro-1,7-naphthyridine-2-carboxamide], the inhibition at 10 µM amounted to 33%.
`C=CC(=O)N1CCN(c2cc(C(=O)NC(CC(C)C)CN(C)C)nc3c2CCN(c2cccc4cccc(C)c24)C3)CC1` (racemic) [Compound 20, rac-4-(4-acryloylpiperazin-1-yl)-N-(1-(dimethylamino)-4-methylpentan-2-yl)-7-(8-methylnaphthalen-1-yl)-5,6,7,8-tetrahydro-1,7-naphthyridine-2-carboxamide] returned an inhibition at 10 µM of 30%.
The same measure, in the same setting: in the case of `C=CC(=O)N1CCN(c2cc(C(=O)NCCCN(C)C)nc3c2CCN(c2cccc4ccccc24)C3)CC1` [Compound 4, 4-(4-acryloylpiperazin-1-yl)-N-(3-(dimethylamino)propyl)-7-(naphthalen-1-yl)-5,6,7,8-tetrahydro-1,7-naphthyridine-2-carboxamide] it was 23%; in that of `C=CC(=O)N1CCN(c2cc(C(=O)NC(C)(C)CN(C)C)nc3c2CCN(c2cccc4cccc(C)c24)C3)CC1` [Compound 17, 4-(4-acryloylpiperazin-1-yl)-N-(1-(dimethylamino)-2-methylpropan-2-yl)-7-(8-methylnaphthalen-1-yl)-5,6,7,8-tetrahydro-1,7-naphthyridine-2-carboxamide], 16%.

Staying with this assay, now noted: apparent potency; preincubation time of 60 minutes prior to addition of SOS.
On to `C=CC(=O)N1CCN(c2cc(C(=O)NC(CO)CN(C)C)nc3c2CCN(c2cccc4cccc(C)c24)C3)CC1` (racemic) [Compound 16, rac-4-(4-acryloylpiperazin-1-yl)-N-(1-(dimethylamino)-3-hydroxypropan-2-yl)-7-(8-methylnaphthalen-1-yl)-5,6,7,8-tetrahydro-1,7-naphthyridine-2-carboxamide], for which the IC50 was 962 nM.
On the same count and under the same terms, next, `C=CC(=O)N1CCN(c2cc(C(=O)N3CCCCC3CN3CCCC3)nc3c2CCN(c2cccc4cccc(C)c24)C3)CC1` (racemic) [Compound 46, rac-1-(4-(7-(8-methylnaphthalen-1-yl)-2-(2-(pyrrolidin-1-ylmethyl)piperidine-1-carbonyl)-5,6,7,8-tetrahydro-1,7-naphthyridin-4-yl)piperazin-1-yl)prop-2-en-1-one]: 8880 nM; `C=CC(=O)N1CCN(c2cc(C(=O)N[C@H]3COC[C@H]3N)nc3c2CCN(c2cccc4cccc(C)c24)C3)CC1` (racemic) [Compound 28, rac-4-(4-acryloylpiperazin-1-yl)-N-(cis-4-aminotetrahydrofuran-3-yl)-7-(8-methylnaphthalen-1-yl)-5,6,7,8-tetrahydro-1,7-naphthyridine-2-carboxamide]: 7320 nM; `C=CC(=O)N1CCN(c2cc(C(=O)N[C@H]3COC[C@@H]3N3CCN(C)CC3)nc3c2CCN(c2cccc4cccc(C)c24)C3)CC1` (racemic) [Compound 33, rac-4-(4-acryloylpiperazin-1-yl)-7-(8-methylnaphthalen-1-yl)-N-(trans-4-(4-methylpiperazin-1-yl)tetrahydrofuran-3-yl)-5,6,7,8-tetrahydro-1,7-naphthyridine-2-carboxamide]: 6650 nM.
On the same count and under the same terms, next, `C=CC(=O)N1CCN(c2cc(C(=O)NC3CCCN(C)C3)nc3c2CCN(c2cccc4cccc(C)c24)C3)CC1` (racemic) [Compound 52, rac-4-(4-acryloylpiperazin-1-yl)-7-(8-methylnaphthalen-1-yl)-N-(1-methylpiperidin-3-yl)-5,6,7,8-tetrahydro-1,7-naphthyridine-2-carboxamide]: 5500 nM; `C=CC(=O)N1CCN(c2cc(C(=O)N3CCCCC3CN(C)C)nc3c2CCN(c2cccc4cccc(C)c24)C3)CC1` (racemic) [Compound 47, rac-1-(4-(2-(2-((dimethylamino)methyl)piperidine-1-carbonyl)-7-(8-methylnaphthalen-1-yl)-5,6,7,8-tetrahydro-1,7-naphthyridin-4-yl)piperazin-1-yl)prop-2-en-1-one]: 7750 nM; `C=CC(=O)N1CCN(c2cc(C(=O)N[C@H]3CCN(C)C3)nc3c2CCN(c2cccc4cccc(C)c24)C3)CC1` [Compound 49, (S)-4-(4-acryloylpiperazin-1-yl)-7-(8-methylnaphthalen-1-yl)-N-(1-methylpyrrolidin-3-yl)-5,6,7,8-tetrahydro-1,7-naphthyridine-2-carboxamide]: 2180 nM.
`C=CC(=O)N1CCN(c2cc(C(=O)N[C@H]3CCC[C@@H]3N3CCOCC3)nc3c2CCN(c2cccc4cccc(C)c24)C3)CC1` (racemic) [Compound 34, rac-4-(4-acryloylpiperazin-1-yl)-7-(8-methylnaphthalen-1-yl)-N-(trans-2-morpholinocyclopentyl)-5,6,7,8-tetrahydro-1,7-naphthyridine-2-carboxamide]: the IC50 amounted to 3570 nM.
Still for that read-out and setting: in the case of `C=CC(=O)N1CCN(c2cc(C(=O)NCCCN(C)C)nc3c2CCN(c2cccc4ccccc24)C3)CC1` [Compound 4, 4-(4-acryloylpiperazin-1-yl)-N-(3-(dimethylamino)propyl)-7-(naphthalen-1-yl)-5,6,7,8-tetrahydro-1,7-naphthyridine-2-carboxamide] it was 9400 nM; in that of `C=CC(=O)N1CCN(c2cc(C(=O)N[C@@H]3CCC[C@H]3N(C)C)nc3c2CCN(c2cccc4ccccc24)C3)CC1` (racemic) [Compound 7, rac-4-(4-acryloylpiperazin-1-yl)-N-(trans-2-(dimethylamino)cyclo-pentyl)-7-(naphthalen-1-yl)-5,6,7,8-tetrahydro-1,7-naphthyridine-2-carboxamide], 1590 nM.
Turning to `C=CC(=O)N1CCN(c2cc(C(=O)N3CCCC3CN3CCCCCC3)nc3c2CCN(c2cccc4cccc(C)c24)C3)CC1` (racemic) [Compound 45, rac-1-(4-(2-(2-(azepan-1-ylmethyl)pyrrolidine-1-carbonyl)-7-(8-methylnaphthalen-1-yl)-5,6,7,8-tetrahydro-1,7-naphthyridin-4-yl)piperazin-1-yl)prop-2-en-1-one], the concentration for half-maximal inhibition (IC50) stood at 5350 nM.
Still for that read-out and setting: in the case of `C=CC(=O)N1CCN(c2cc(C(=O)NC(C)CN(CC)CC)nc3c2CCN(c2cccc4cccc(C)c24)C3)CC1` (racemic) [Compound 19, rac-4-(4-acryloylpiperazin-1-yl)-N-(1-(diethylamino)propan-2-yl)-7-(8-methylnaphthalen-1-yl)-5,6,7,8-tetrahydro-1,7-naphthyridine-2-carboxamide] it was 3740 nM; in that of `C=CC(=O)N1CCN(c2cc(C(=O)N[C@H]3CCCC[C@@H]3N)nc3c2CCN(c2cccc4cccc(C)c24)C3)CC1` [Compound 30, 4-(4-acryloylpiperazin-1-yl)-N-((1S,2S)-2-aminocyclohexyl)-7-(8-methylnaphthalen-1-yl)-5,6,7,8-tetrahydro-1,7-naphthyridine-2-carboxamide], 4900 nM.
Same read-out and setting: next, `C=CC(=O)N1CCN(c2cc(C(=O)N[C@@H]3CCN(C)C3)nc3c2CCN(c2cccc4cccc(C)c24)C3)CC1` [Compound 50, (R)-4-(4-acryloylpiperazin-1-yl)-7-(8-methylnaphthalen-1-yl)-N-(1-methylpyrrolidin-3-yl)-5,6,7,8-tetrahydro-1,7-naphthyridine-2-carboxamide]: 3570 nM; `C=CC(=O)N1CCN(c2cc(C(=O)N[C@@H]3CCC[C@H]3N(C)C)nc3c2CCN(c2cccc4cccc(C)c24)C3)CC1` (racemic) [Compound 29, rac-4-(4-acryloylpiperazin-1-yl)-N-(trans-2-(dimethylamino)cyclopentyl)-7-(8-methylnaphthalen-1-yl)-5,6,7,8-tetrahydro-1,7-naphthyridine-2-carboxamide]: 259 nM; `C=CC(=O)N1CCN(c2cc(C(=O)N[C@@H]3CCCC[C@H]3N)nc3c2CCN(c2cccc4cccc(C)c24)C3)CC1` [Compound 31, 4-(4-acryloylpiperazin-1-yl)-N-((1R,2R)-2-aminocyclohexyl)-7-(8-methylnaphthalen-1-yl)-5,6,7,8-tetrahydro-1,7-naphthyridine-2-carboxamide]: 426 nM.

Values taken from patent publication US20220402916A1, “SMALL MOLECULE INHIBITORS OF KRAS G12C MUTANT” (Merck Sharp & Dohme Corp., priority 2019, published 2022).
